According to patent US20180221343A1, “PHARMACEUTICAL COMPOSITION FOR PREVENTING OR TREATING MACULAR DEGENERATION” (KOREA RESEARCH INSTITUTE OF CHEMICAL TECHNOLOGY, priority 2011, published 2018):

Tests used:
[1] = system: corneal angiogenesis; test: Inhibitory effects against corneal angiogenesis, subconjunctival injection and eye drop-administration; format: in vivo, Sprague Dawley rats; conditions: subconjunctival injection 20 μl plus eye drop 50 μl; KR 0.3 mg/ml, Avastin 10 mg/ml
Protocol: The tests were performed by using Sprague Dawley rats (8 weeks old, male) as animals having corneal damage (15 rats for the experiment group; and 1 rat for normal group, respectively). The corneal damage was induced by applying a cotton swab coated with silver nitrate to the surface of the rat corneas, as as to induce a damage having a diameter of 2 mm in the central cornea. On the third day after inducing the corneal damages, we confirmed the establishment of corneal angiogenesis-inducing models and then subconjunctivally injected a solution (20 μl) prepared by dissolving the compound of Preparation Example 23, i.e., (2R,3R,4S)-6-amino-4-[N-(4-chlorophenyl)-N-(1H-imidazol-2-ylmethyl)amino]-3-hydroxy-2-methyl-2-dimethoxymethyl-3,4-dihydro-2H-1-benzopyran (KR-31831) in phosphate buffered saline (PBS) containing 10% PEG 400, in the concentration of 0.3 mg/ml. […] The evaluations quantifying the photographs of FIG. 1 were performed by using the Image J (NIH, USA) program and the results thereof were shown in FIG. 2.
Except for performing both the subconjunctival injection and the eye drop-administration of (2R,3R,4S)-6-amino-4-[N-(4-chlorophenyl)-N-(1H-imidazol-2-ylmethyl)amino]-3-hydroxy-2-methyl-2-dimethoxymethyl-3,4-dihydro-2H-1-benzopyran and Avastin, the inhibitory effects against angiogenesis were evaluated according to the same manners as in Example 1. […]

[2] = system: retinal angiogenesis; test: Laser-induced retinal damage model, retinal angiogenesis by dextran-FITC fluorescence; format: in vivo, Brown Norway rats; conditions: 2 weeks after administration
Protocol: The tests were performed by using Brown Norway rats (8 weeks old, male) as animals having retinal damage (15 rats for the experiment group; and 1 rat for normal group, respectively). The retinal Bruch's membrane of each Brown Norway rat was damaged using a Zeiss 532s laser at the intensity of […], 30 ms. On the third day after the laser-damaging, the drug was administered into the vitreous humor in order to observe the retinal vessels. The compound of the present invention, i.e., (2R,3R,4S)-6-amino-4-[N-(4-chlorophenyl)-N-(1H-imidazol-2-ylmethyl)amino]-3-hydroxy-2-methyl-2-dimethoxymethyl-3,4-dihydro-2H-1-benzopyran was administered with the solutions (10 μl of each solution) obtained by dissolving in PBS containing 30% PEG 400 and 10% DMSO, in the concentrations of 0.1 mg/ml and 0.3 mg/ml. Avastin was administered with the solution (10 μl) obtained by dissolving in PBS in the concentration of 2.5 mg/ml. In case of the control group, the PBS (10 μl) was administered. In addition, (2R,3R,4S)-6-amino-4-[N-(4-chlorophenyl)-N-(1H-imidazol-2-ylmethyl)amino]-3-hydroxy-2-methyl-2-dimethoxymethyl-3,4-dihydro-2H-1-benzopyran was intraperitoneally administered with the solution obtained by dissolving in PBS containing 30% PEG 400 and 10% DMSO, in the dose of 25 mg/kg. 2 weeks after the drug administrations, dextran-FITC was injected into the left ventricle in the dose of 25 mg/kg, followed by enucleating the eye after 5 minutes therefrom; and then fixing in a 10% formalin solution. The cornea and the eye lens were removed from the fixed eye, which was then observed under a fluorescence microscope. Angiogenesis was identified by the intensity and leakage of dextran-FITC in the laser-induced damage site; and the results thereof were shown in FIG. 7. The evaluations quantifying the photographs of FIG. 7 were performed by using the Image J (NIH, USA) program and the results thereof were shown in FIG. 8.

SMILES: COC(OC)[C@]1(C)Oc2ccc(N)cc2[C@H](N(Cc2ncc[nH]2)c2ccc(Cl)cc2)[C@H]1O [KR-31831, (2R,3R,4S)-6-amino-4-[N-(4-chlorophenyl)-N-(1H-imidazol-2-ylmethyl)amino]-3-hydroxy-2-methyl-2-dimethoxymethyl-3,4-dihydro-2H-1-benzopyran]
- angiogenesis in comparison with the angiogenesis (100%) of the control group [1]: 25.1±10.8%
- fluorescence intensity at laser-induced damage site (surrounding vessels = 100) ([2]; 0.1 mg/ml, VI (10 μl into the vitreous humor)): 53±2.8
- fluorescence intensity at laser-induced damage site (surrounding vessels = 100) ([2]; 0.3 mg/ml, VI (10 μl into the vitreous humor)): 45±3.1
- fluorescence intensity at laser-induced damage site (surrounding vessels = 100) ([2]; 25 mg/kg, IP (intraperitoneal)): 51±5
